# Test results reported in PubChem BioAssay (NCI).
#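 A five-concentration, 48-hour dose response in 96-well plates underlies each endpoint, interpolated linearly between surrounding concentrations. Here, GI50 denotes the concentration required for 50% inhibition of growth. TGI: concentration producing complete growth inhibition.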
# Key:
# Assay in all cases: inhibition of tumour cell growth, NCI panel, 48 h
# [1] = system: CAKI-1 renal
# [2] = system: NCI-H23 lung
# [3] = system: SF-268 CNS
# [4] = system: U251 CNS
# [5] = system: SF-539 CNS
# [6] = system: OVCAR-8 ovarian
# [7] = system: SK-MEL-28 melanoma
# [8] = system: OVCAR-5 ovarian
# [9] = system: MCF7 breast
# [10] = system: OVCAR-4 ovarian
# [11] = system: UACC-62 melanoma
# [12] = system: MDA-MB-468 breast
# [13] = system: HOP-92 NSCLC
# [14] = system: HS 578T breast
# [15] = system: T-47D breast
# [16] = system: A498 renal
# [17] = system: EKVX NSCLC
# [18] = system: HCT-15 colon
# [19] = system: HCT-116 colon
# [20] = system: MOLT-4 leukemia
# [21] = system: SF-295 CNS
# [22] = system: A549 NSCLC
# [23] = system: SR leukemia
# [24] = system: SN12C renal
# [25] = system: NCI-H522 lung
# [26] = system: SK-OV-3 ovarian
# [27] = system: HL-60(TB) leukemia
# [28] = system: OVCAR-3 ovarian
# [29] = system: LOX IMVI melanoma
# [30] = system: TK-10 renal
# [31] = system: RPMI-8226 leukemia
# [32] = system: HCC-2998 colon
# [33] = system: 786-0 renal
# [34] = system: BT-549 breast
# [35] = system: SK-MEL-2 melanoma
# [36] = system: DU-145 prostate
# [37] = system: UACC-257 melanoma
# [38] = system: MDA-MB-231 breast
# [39] = system: UO-31 renal
# [40] = system: MALME-3M melanoma
# [41] = system: CCRF-CEM leukemia
# [42] = system: SK-MEL-5 melanoma
# [43] = system: IGROV1 ovarian
# [44] = system: KM12 colon
# [45] = system: HOP-62 NSCLC
# [46] = system: NCI-H226 lung
# [47] = system: SNB-19 CNS
# [48] = system: HT29 colon
# [49] = system: COLO 205 colon
# [50] = system: MDA-MB-435
# [51] = system: M14 melanoma
# [52] = system: NCI-H460 lung
# [53] = system: SW-620 colon
# [54] = system: SNB-75 CNS
# [55] = system: K-562 leukemia
# [56] = system: RXF 393 renal
# [57] = system: ACHN renal
# [58] = system: PC-3 prostate
structure (smiles),measurement,setting,value
CC1=C(C)C(=O)C(NCCN2CCOCC2)=C(Br)C1=O,GI50,[1],10.7 µM
same,TGI,[1],23.3 µM
same,GI50,[2],3.84 µM
same,TGI,[2],16.3 µM
same,GI50,[3],12.8 µM
same,TGI,[3],32 µM
same,GI50,[4],12 µM
same,TGI,[4],25.2 µM
same,GI50,[5],17 µM
same,TGI,[5],31.5 µM
same,GI50,[6],3.84 µM
same,TGI,[6],15.8 µM
same,GI50,[7],14.5 µM
same,TGI,[7],28 µM
same,GI50,[8],6.43 µM
same,TGI,[8],19.3 µM
same,GI50,[9],3.66 µM
same,TGI,[9],15.2 µM
same,GI50,[10],5.02 µM
same,TGI,[10],17.6 µM
same,GI50,[11],5.78 µM
same,TGI,[11],18.4 µM
same,GI50,[12],0.222 µM
same,TGI,[12],0.885 µM
same,GI50,[13],13.3 µM
same,TGI,[13],28 µM
same,GI50,[14],9.04 µM
same,TGI,[14],34.6 µM
same,GI50,[15],2.01 µM
same,TGI,[15],4.74 µM
same,GI50,[16],19.2 µM
same,TGI,[16],34 µM
same,GI50,[17],12.8 µM
same,TGI,[17],25.9 µM
same,GI50,[18],15.9 µM
same,TGI,[18],30.9 µM
same,GI50,[19],2.93 µM
same,TGI,[19],10.9 µM
same,GI50,[20],5.35 µM
same,TGI,[20],32.8 µM
same,GI50,[21],17.8 µM
same,TGI,[21],31.9 µM
same,GI50,[22],17.4 µM
same,TGI,[22],34 µM
same,GI50,[23],19.2 µM
same,TGI,[23],66.7 µM
same,GI50,[24],14.9 µM
same,TGI,[24],28.2 µM
same,GI50,[25],3.01 µM
same,TGI,[25],11.7 µM
same,GI50,[26],12.5 µM
same,TGI,[26],25.2 µM
same,GI50,[27],2.46 µM
same,TGI,[27],7.24 µM
same,GI50,[28],2.1 µM
same,TGI,[28],7.16 µM
same,GI50,[29],2.33 µM
same,TGI,[29],8.36 µM
same,GI50,[30],19.2 µM
same,TGI,[30],33.3 µM
same,GI50,[31],13.9 µM
same,TGI,[31],55 µM
same,GI50,[32],15.3 µM
same,TGI,[32],28.7 µM
same,GI50,[33],17.8 µM
same,TGI,[33],32.1 µM
same,GI50,[34],13.7 µM
same,TGI,[34],26.6 µM
same,GI50,[35],11.7 µM
same,TGI,[35],24.2 µM
same,GI50,[36],12.7 µM
same,TGI,[36],25.7 µM
same,GI50,[37],2.55 µM
same,TGI,[37],7 µM
same,GI50,[38],5.65 µM
same,TGI,[38],18.7 µM
same,GI50,[39],11 µM
same,TGI,[39],23.2 µM
same,GI50,[40],2.25 µM
same,TGI,[40],5.37 µM
same,GI50,[41],3.44 µM
same,TGI,[41],> 100 µM
same,GI50,[42],11.6 µM
same,TGI,[42],23.8 µM
same,GI50,[43],10.5 µM
same,TGI,[43],22.9 µM
same,GI50,[44],16.7 µM
same,TGI,[44],39.6 µM
same,GI50,[45],14.6 µM
same,TGI,[45],28.1 µM
same,GI50,[46],12.1 µM
same,TGI,[46],26.7 µM
same,GI50,[47],16.3 µM
same,TGI,[47],30.5 µM
same,GI50,[48],16 µM
same,TGI,[48],31.3 µM
same,GI50,[49],17.9 µM
same,TGI,[49],33.6 µM
same,GI50,[50],1.81 µM
same,TGI,[50],3.35 µM
same,GI50,[51],13.6 µM
same,TGI,[51],26.7 µM
same,GI50,[52],16.1 µM
same,TGI,[52],34.2 µM
same,GI50,[53],2.94 µM
same,TGI,[53],14 µM
same,GI50,[54],18.5 µM
same,TGI,[54],34.2 µM
same,GI50,[55],3.3 µM
same,TGI,[55],61.9 µM
same,GI50,[56],12.7 µM
same,TGI,[56],25.3 µM
same,GI50,[57],13.8 µM
same,TGI,[57],26.8 µM
same,GI50,[58],16.9 µM
same,TGI,[58],50.6 µM
